According to patent US6583132B1, “Oxidant scavengers” (Duke University, priority 1993, dated 2003):
Read-outs that look alike come from different tables or passages of the source.

How the values were obtained:
[1] = molecular target: T1, xanthine oxidase (Bos taurus, UniProt P80457); experiment: Inhibition of xanthine oxidase; assay type: biochemical; conditions: for Ki: pH 10, 25° C., 1 nM xanthine oxidase
T1 construct: purchased Boehringer Mannheim
Protocol: In a first study, assays were performed in a 1 ml quartz cuvette containing 50 mM carbonate buffer, pH 10, 0.1 mM EDTA, 1 nM xanthine oxidase (Boehringer Mannheim) at 25° C. Xanthine oxidase activity was measured spectrophotometrically by following the […] over time at 295 nm. Four concentrations of xanthine (25, 50, 250, 500 μM) and 2 concentrations of MnTBAP (5, 10 μM) were used. Two inhibition constants were then derived from the curve's intercepts (Kii=5.5 μM) and slopes (Kis=15 μM).

[2] = system: J774 macrophages; experiment: Nitrite/nitrate production in J774 macrophages; assay type: cell-based; conditions: for inhibition of LPS-induced nitrite/nitrate accumulation: LPS 10 μg/ml; for inhibition of nitrite/nitrate accumulation: LPS and IFN
Protocol: Cell culture: J774 macrophages were cultured in DMEM medium, supplemented with L-glutamine (3.5 mmol/L) and 10% fetal calf serum. Cells were cultured in 96-well plates (200 μl medium/well) until confluence. To induce the inducible isoform of nitric oxide synthase (iNOS), fresh culture medium containing E. coli LPS (011:B4, 10 μg/ml) alone or in combination with murine γ-interferon (γ-IFN, 10 U/ml) was added in the presence or absence of the NOS inhibitor, the SOD mimetic of the combination of the two compounds for 24 h. Moreover, cells were exposed to the NO donor compounds S-nitroso-N-acetyl-DL-penicillamine (SNAP) (3 mM) and diethylamine:NO NONOate (DNO) (3 mM) for 24 h or to authentic peroxynitrite (1 mM) for 1 h). Nitride/nitrate concentration in the medium and mitochondrial respiration were then measured as described below.
Measurement of nitrite/nitrate production: Nitride/nitrate production, an indicator of NO synthesis, was measured in the supernatant. First, nitrate in the culture medium was reduced to nitrite by incubation with nitrate reductase (670 mU/ml) and NADPH (160 μM) at room temperature for 2 h. After 2 h, nitrite concentration in the samples were measured by the Griess reaction, by adding 100 μl of Griess reagent (1% sulfanilamide and 0.1% naphthylethylenediamide in 5% phosphoric acid) to 100 μl samples of conditioned medium. The optical density at 550 nm (OD550) was measured using a Spectramax 250 microplate reader (Molecular Devices, Sunnyvale, Calif.) Nitrate concentrations were calculated by comparison with OD550 of standard solutions of sodium nitrate prepared in culture medium. All measurements were corrected for the interference of MnTBAP at this wavelength.

T1 sequence (P80457 whole entry): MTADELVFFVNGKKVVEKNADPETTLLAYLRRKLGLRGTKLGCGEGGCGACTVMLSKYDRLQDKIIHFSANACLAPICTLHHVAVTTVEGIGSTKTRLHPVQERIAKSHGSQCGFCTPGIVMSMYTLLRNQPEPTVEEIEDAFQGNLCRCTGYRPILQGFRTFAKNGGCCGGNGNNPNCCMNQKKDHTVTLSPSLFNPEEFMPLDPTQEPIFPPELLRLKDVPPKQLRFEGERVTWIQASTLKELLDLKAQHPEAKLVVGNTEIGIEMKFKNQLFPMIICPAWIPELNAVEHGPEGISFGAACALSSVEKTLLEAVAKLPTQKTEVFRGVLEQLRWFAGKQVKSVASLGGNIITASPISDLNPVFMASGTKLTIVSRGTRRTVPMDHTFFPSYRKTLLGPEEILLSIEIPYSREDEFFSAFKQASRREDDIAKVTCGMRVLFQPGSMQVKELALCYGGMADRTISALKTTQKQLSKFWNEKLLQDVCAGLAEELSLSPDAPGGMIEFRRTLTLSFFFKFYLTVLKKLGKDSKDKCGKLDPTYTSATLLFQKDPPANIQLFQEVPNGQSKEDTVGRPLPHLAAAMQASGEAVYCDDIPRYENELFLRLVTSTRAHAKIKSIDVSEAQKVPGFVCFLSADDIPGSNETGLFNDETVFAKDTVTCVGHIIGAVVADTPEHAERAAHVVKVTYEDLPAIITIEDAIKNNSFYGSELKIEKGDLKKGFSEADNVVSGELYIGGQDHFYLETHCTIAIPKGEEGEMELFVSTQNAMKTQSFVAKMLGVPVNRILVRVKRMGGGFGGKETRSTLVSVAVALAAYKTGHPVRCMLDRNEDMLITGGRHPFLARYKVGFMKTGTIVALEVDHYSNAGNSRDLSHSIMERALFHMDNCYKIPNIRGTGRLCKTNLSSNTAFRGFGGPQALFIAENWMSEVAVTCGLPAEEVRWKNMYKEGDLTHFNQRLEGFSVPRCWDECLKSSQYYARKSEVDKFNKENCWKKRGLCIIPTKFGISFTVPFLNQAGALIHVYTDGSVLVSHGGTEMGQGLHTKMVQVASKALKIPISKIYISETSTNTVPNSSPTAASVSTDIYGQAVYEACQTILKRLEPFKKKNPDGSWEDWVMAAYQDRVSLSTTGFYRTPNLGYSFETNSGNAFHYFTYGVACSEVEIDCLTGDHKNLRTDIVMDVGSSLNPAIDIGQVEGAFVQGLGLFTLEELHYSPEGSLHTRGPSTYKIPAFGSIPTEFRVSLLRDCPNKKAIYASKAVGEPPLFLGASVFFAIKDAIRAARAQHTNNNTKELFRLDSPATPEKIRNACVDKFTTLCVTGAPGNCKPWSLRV

Mn(III) tetrakis (4-benzoic acid)porphyrin [MnTBAP]
manner of inhibition of xanthine oxidase [1]: non-competitive
Ki ([1]; read-out: Kii (inhibition constant from intercepts)): 5.5 µM
Ki ([1]; read-out: Kis (inhibition constant from slopes)): 15 µM
nitrite/nitrate formation in the presence of L-NMA [2]: no additional effect
inhibition of LPS-induced nitrite/nitrate accumulation ([2]; 100 μM): 63%
inhibition of nitrite/nitrate accumulation ([2]; 100 μM): 25%
nitrite/nitrate accumulation in response to DNO ([2]; 300 μM): slight inhibition
nitrite/nitrate accumulation in response to SNAP ([2]; 300 μM): did not inhibit
inhibition of LPS-induced nitrite/nitrate accumulation ([2]; 300 μM): 86%
inhibition of nitrite/nitrate accumulation ([2]; 300 μM): 61%
change of inhibition of nitrite/nitrate accumulation when applied 6 h after LPS ([2]; LPS-stimulated macrophages): more than 50%
